Data reported in PubChem BioAssay (NCI).
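GI50: concentration for 50% inhibition of growth. TGI marks complete inhibition of growth.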

Experiments:
Assay in all cases: NCI-60 cell line screen, 384-well format
HT29 colon = test system: HT29 colon
SW-620 colon = test system: SW-620 colon
PC-3 prostate = test system: PC-3 prostate
HCT-15 colon = test system: HCT-15 colon
NCI-H522 lung = test system: NCI-H522 lung
ACHN renal = test system: ACHN renal
SK-MEL-5 melanoma = test system: SK-MEL-5 melanoma
SR leukemia = test system: SR leukemia
HOP-92 NSCLC = test system: HOP-92 NSCLC
K-562 leukemia = test system: K-562 leukemia
NCI-H226 lung = test system: NCI-H226 lung
OVCAR-4 ovarian = test system: OVCAR-4 ovarian
HCT-116 colon = test system: HCT-116 colon
TK-10 renal = test system: TK-10 renal
DU-145 prostate = test system: DU-145 prostate
M14 melanoma = test system: M14 melanoma
SNB-19 CNS = test system: SNB-19 CNS
SF-268 CNS = test system: SF-268 CNS
SN12C renal = test system: SN12C renal
SK-MEL-2 melanoma = test system: SK-MEL-2 melanoma
NCI-H322M lung = test system: NCI-H322M lung
NCI-H23 lung = test system: NCI-H23 lung
COLO 205 colon = test system: COLO 205 colon
HCC-2998 colon = test system: HCC-2998 colon
SF-539 CNS = test system: SF-539 CNS
SK-MEL-28 melanoma = test system: SK-MEL-28 melanoma
KM12 colon = test system: KM12 colon
MDA-MB-435 melanoma = test system: MDA-MB-435 melanoma
CCRF-CEM leukemia = test system: CCRF-CEM leukemia
CAKI-1 renal = test system: CAKI-1 renal
OVCAR-8 ovarian = test system: OVCAR-8 ovarian
SK-OV-3 ovarian = test system: SK-OV-3 ovarian
RXF 393 renal = test system: RXF 393 renal
MOLT-4 leukemia = test system: MOLT-4 leukemia
IGROV1 ovarian = test system: IGROV1 ovarian
T-47D breast = test system: T-47D breast
UACC-62 melanoma = test system: UACC-62 melanoma
OVCAR-3 ovarian = test system: OVCAR-3 ovarian
HOP-62 NSCLC = test system: HOP-62 NSCLC
A549 NSCLC = test system: A549 NSCLC
786-0 renal = test system: 786-0 renal
MALME-3M melanoma = test system: MALME-3M melanoma
A498 renal = test system: A498 renal
U251 glioblastoma = test system: U251 glioblastoma
OVCAR-5 ovarian = test system: OVCAR-5 ovarian
MCF7 breast = test system: MCF7 breast
LOX IMVI melanoma = test system: LOX IMVI melanoma
HL-60(TB) leukemia = test system: HL-60(TB) leukemia
UO-31 renal = test system: UO-31 renal
UACC-257 melanoma = test system: UACC-257 melanoma
RPMI-8226 leukemia = test system: RPMI-8226 leukemia
NCI/ADR-RES ovarian = test system: NCI/ADR-RES ovarian
SF-295 CNS = test system: SF-295 CNS
MDA-MB-468 breast = test system: MDA-MB-468 breast
NCI-H460 NSCLC = test system: NCI-H460 NSCLC

`CC[C@H](NC(=O)[C@H](C)NC)C(=O)N1C[C@@H](O)C[C@H]1Cc1c(-c2[nH]c3cc(F)ccc3c2C[C@@H]2C[C@H](O)CN2C(=O)[C@H](CC)NC(=O)[C@H](C)NC)[nH]c2cc(F)ccc12` showed a GI50 (HT29 colon) of 16.4 µM, a TGI (HT29 colon) of 39.8 µM and a GI50 (SW-620 colon) of 57 µM. For the same compound, the TGI (SW-620 colon) was greater than 100 µM, the GI50 (PC-3 prostate) was 63 µM and the TGI (PC-3 prostate) was greater than 100 µM. It also gave a GI50 (HCT-15 colon) greater than 100 µM, a TGI (HCT-15 colon) greater than 100 µM and a GI50 (NCI-H522 lung) of 0.0544 µM. It also gave a TGI (NCI-H522 lung) of 12.9 µM, a GI50 (ACHN renal) greater than 100 µM and a TGI (ACHN renal) greater than 100 µM. The GI50 (SK-MEL-5 melanoma) was 0.112 µM, the TGI (SK-MEL-5 melanoma) was 0.438 µM and the GI50 (SR leukemia) was 3.4 µM. The TGI (SR leukemia) was 19.5 µM, the GI50 (HOP-92 NSCLC) was 0.785 µM and the TGI (HOP-92 NSCLC) was 13.5 µM. It also gave a GI50 (K-562 leukemia) of 21.9 µM, a TGI (K-562 leukemia) of 50.7 µM and a GI50 (NCI-H226 lung) greater than 100 µM. It also gave a TGI (NCI-H226 lung) greater than 100 µM, a GI50 (OVCAR-4 ovarian) of less than 0.01 µM and a TGI (OVCAR-4 ovarian) of less than 0.01 µM. For the same compound, the GI50 (HCT-116 colon) was 35 µM, the TGI (HCT-116 colon) was greater than 100 µM and the GI50 (TK-10 renal) was greater than 100 µM. The TGI (TK-10 renal) was greater than 100 µM, the GI50 (DU-145 prostate) was 24.2 µM and the TGI (DU-145 prostate) was greater than 100 µM. The GI50 (M14 melanoma) was greater than 100 µM, the TGI (M14 melanoma) was greater than 100 µM and the GI50 (SNB-19 CNS) was greater than 100 µM. The TGI (SNB-19 CNS) was greater than 100 µM, the GI50 (SF-268 CNS) was 28.1 µM and the TGI (SF-268 CNS) was 90.6 µM. It also gave a GI50 (SN12C renal) greater than 100 µM, a TGI (SN12C renal) greater than 100 µM and a GI50 (SK-MEL-2 melanoma) of less than 0.01 µM. The TGI (SK-MEL-2 melanoma) was less than 0.01 µM, the GI50 (NCI-H322M lung) was greater than 100 µM and the TGI (NCI-H322M lung) was greater than 100 µM. The GI50 (NCI-H23 lung) was 0.0611 µM, the TGI (NCI-H23 lung) was 13.1 µM and the GI50 (COLO 205 colon) was 37 µM. It also gave a TGI (COLO 205 colon) greater than 100 µM, a GI50 (HCC-2998 colon) of 16.6 µM and a TGI (HCC-2998 colon) of 49.8 µM. For the same compound, the GI50 (SF-539 CNS) was 14.6 µM, the TGI (SF-539 CNS) was 32.5 µM and the GI50 (SK-MEL-28 melanoma) was 86.3 µM. For the same compound, the TGI (SK-MEL-28 melanoma) was greater than 100 µM, the GI50 (KM12 colon) was 23.8 µM and the TGI (KM12 colon) was 74.5 µM. It also gave a GI50 (MDA-MB-435 melanoma) of 0.0982 µM, a TGI (MDA-MB-435 melanoma) greater than 100 µM and a GI50 (CCRF-CEM leukemia) of 0.028 µM. It also gave a TGI (CCRF-CEM leukemia) of 16.8 µM, a GI50 (CAKI-1 renal) greater than 100 µM and a TGI (CAKI-1 renal) greater than 100 µM. The GI50 (OVCAR-8 ovarian) was 17 µM, the TGI (OVCAR-8 ovarian) was greater than 100 µM and the GI50 (SK-OV-3 ovarian) was less than 0.01 µM. It also gave a TGI (SK-OV-3 ovarian) of less than 0.01 µM, a GI50 (RXF 393 renal) of less than 0.01 µM and a TGI (RXF 393 renal) of 0.0829 µM. The GI50 (MOLT-4 leukemia) was 16.4 µM, the TGI (MOLT-4 leukemia) was 30.2 µM and the GI50 (IGROV1 ovarian) was greater than 100 µM. It also gave a TGI (IGROV1 ovarian) greater than 100 µM, a GI50 (T-47D breast) greater than 100 µM and a TGI (T-47D breast) greater than 100 µM. It also gave a GI50 (UACC-62 melanoma) greater than 100 µM, a TGI (UACC-62 melanoma) greater than 100 µM and a GI50 (OVCAR-3 ovarian) of 17.9 µM. For the same compound, the TGI (OVCAR-3 ovarian) was greater than 100 µM, the GI50 (HOP-62 NSCLC) was 0.555 µM and the TGI (HOP-62 NSCLC) was 8.66 µM. It also gave a GI50 (A549 NSCLC) greater than 100 µM, a TGI (A549 NSCLC) greater than 100 µM and a GI50 ([…]-0 renal) greater than 100 µM. It also gave a TGI (786-0 renal) greater than 100 µM, a GI50 (MALME-3M melanoma) of 0.0143 µM and a TGI (MALME-3M melanoma) of 0.132 µM. It also gave a GI50 (A498 renal) greater than 100 µM, a TGI (A498 renal) greater than 100 µM and a GI50 (U251 glioblastoma) of 18 µM. It also gave a TGI (U251 glioblastoma) of 35.7 µM, a GI50 (OVCAR-5 ovarian) greater than 100 µM and a TGI (OVCAR-5 ovarian) greater than 100 µM. It also gave a GI50 (MCF7 breast) of 15.1 µM, a TGI (MCF7 breast) of 31.4 µM and a GI50 (LOX IMVI melanoma) of 20.1 µM. The TGI (LOX IMVI melanoma) was 35.9 µM, the GI50 (HL-60(TB) leukemia) was less than 0.01 µM and the TGI (HL-60(TB) leukemia) was less than 0.01 µM. The GI50 (UO-31 renal) was greater than 100 µM, the TGI (UO-31 renal) was greater than 100 µM and the GI50 (UACC-257 melanoma) was 20 µM. For the same compound, the TGI (UACC-257 melanoma) was 69.3 µM, the GI50 (RPMI-8226 leukemia) was 0.102 µM and the TGI (RPMI-8226 leukemia) was 0.896 µM. For the same compound, the GI50 (NCI/ADR-RES ovarian) was greater than 100 µM, the TGI (NCI/ADR-RES ovarian) was greater than 100 µM and the GI50 (SF-295 CNS) was 82 µM. For the same compound, the TGI (SF-295 CNS) was greater than 100 µM, the GI50 (MDA-MB-468 breast) was less than 0.01 µM and the TGI (MDA-MB-468 breast) was 0.637 µM. For the same compound, the GI50 (NCI-H460 NSCLC) was 18 µM and the TGI (NCI-H460 NSCLC) was 38.1 µM.
